According to US20140066498A1, “TRITERPENOID DERIVATIVES, BENZENOID DERIVATIVES, AND PHARMACEUTICAL COMPOSITIONS CONTAINING THE SAME” (National Cheng Kung University, priority 2010, published 2014):
In brackets after ≈: the same amount, converted by molar mass. Like-named read-outs stand apart in the source and are kept apart here.

How the values were obtained:
[1] = target: T1, nitric oxide synthase (NOS) (Mus musculus, UniProt P29477); assay: NOS activity: LPS-induced NO production in murine microglial cells (BV2)
T1 sequence (P29477 1-1144): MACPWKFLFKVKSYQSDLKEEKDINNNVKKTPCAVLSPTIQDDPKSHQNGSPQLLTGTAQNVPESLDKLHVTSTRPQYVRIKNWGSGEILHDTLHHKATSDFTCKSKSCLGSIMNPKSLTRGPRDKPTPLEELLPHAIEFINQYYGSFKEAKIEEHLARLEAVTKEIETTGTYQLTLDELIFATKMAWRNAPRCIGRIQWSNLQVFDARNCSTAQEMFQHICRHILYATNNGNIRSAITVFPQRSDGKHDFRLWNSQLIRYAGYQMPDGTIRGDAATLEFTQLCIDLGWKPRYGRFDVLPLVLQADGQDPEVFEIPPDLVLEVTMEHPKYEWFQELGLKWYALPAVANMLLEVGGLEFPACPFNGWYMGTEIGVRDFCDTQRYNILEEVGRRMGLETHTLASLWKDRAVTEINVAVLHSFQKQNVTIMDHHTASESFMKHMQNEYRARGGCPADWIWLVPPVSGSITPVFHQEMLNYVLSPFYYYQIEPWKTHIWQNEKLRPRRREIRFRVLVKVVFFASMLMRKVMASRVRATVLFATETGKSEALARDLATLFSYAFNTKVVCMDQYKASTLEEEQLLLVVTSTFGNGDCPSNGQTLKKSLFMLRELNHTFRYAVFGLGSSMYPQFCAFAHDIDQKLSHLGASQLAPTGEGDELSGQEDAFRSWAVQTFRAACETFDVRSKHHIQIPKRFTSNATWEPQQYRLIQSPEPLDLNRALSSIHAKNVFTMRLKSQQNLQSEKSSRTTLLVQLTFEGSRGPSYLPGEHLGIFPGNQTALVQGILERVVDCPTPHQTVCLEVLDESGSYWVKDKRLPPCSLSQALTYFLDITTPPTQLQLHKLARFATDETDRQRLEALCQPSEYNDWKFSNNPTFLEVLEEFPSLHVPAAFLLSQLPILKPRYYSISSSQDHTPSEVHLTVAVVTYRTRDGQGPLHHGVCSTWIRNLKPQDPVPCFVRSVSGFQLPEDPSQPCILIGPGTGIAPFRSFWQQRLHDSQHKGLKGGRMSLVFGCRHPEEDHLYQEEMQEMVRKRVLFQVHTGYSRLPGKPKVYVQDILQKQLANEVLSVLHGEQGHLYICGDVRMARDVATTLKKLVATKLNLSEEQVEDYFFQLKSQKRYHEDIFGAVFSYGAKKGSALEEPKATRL
Experimental: Microglial cell culture and measurements of mitric oxide (NO). The murine microglial cell line (BV2) was cultured, and the production of NO was measured by the methods as previously described (Wang, Y. H.; Wang, W. Y.; Chang, C. C.; Liou, K. T.; Sung, Y. J.; Liao, J. F.; Chen, C. F.; Chang, S.; Hou, Y. C.; Chou, Y. C.; Shen, Y. C. J. Biomed. Sci. 2006, 13, 127-141).

[2] = tested on: KB-VIN (multidrug-resistant strain); assay: Cytotoxicity assay against KB-VIN cells in vitro; format: cell-based, human
[3] = tested on: Daoy (human medulloblastoma); assay: MTT cytotoxicity assay, Daoy; format: cell-based; settings: Daoy cell line
Experimental: (§1) Compounds II-7-II-9, II-13, II-14, II-20, II-21, II-25-II-33, and II-36 were assayed for cytotoxic activity against Doay (human medulloblastoma), Hep2 (human laryngeal carcinoma), MCF-7 (human breast adenocarcinoma), and Hela (human cervical epitheloid carcinoma) cell lines, using a MTT assay method.

[4] = tested on: Hep2 (human laryngeal carcinoma); assay: MTT cytotoxicity assay, Hep2; format: cell-based; settings: Hep2 cell line
Experimental: as §1

[5] = tested on: KB (human cancer cell); assay: Cytotoxicity assay against KB cells in vitro; format: cell-based; settings: NA@20 given for inactive
[6] = tested on: Hela (human cervical epitheloid carcinoma); assay: MTT cytotoxicity assay, Hela; format: cell-based; settings: Hela cell line
Experimental: as §1

[7] = tested on: MCF-7 (human breast adenocarcinoma); assay: MTT cytotoxicity assay, MCF-7; format: cell-based; settings: MCF-7 cell line
Experimental: as §1

[8] = target: NADPH oxidase (NOX) (Homo sapiens, UniProt P04839); format: cell-based; settings: ROS production triggered with fMLP (2 μM), 1-50 μM test drug, peripheral human neutrophils; mean ± S.E.M.; read-out: IC50 (μM) in NOX fMLP-induced NOX activation in PMN
[9] = target: NADPH oxidase (NOX) (Mus musculus, UniProt Q61093); format: biochemical, murine; settings: ROS production triggered with NADPH (200 μM), 1-50 μM test drug, BV2 cell lysate; mean ± S.E.M., 3-6 experiments; read-out: IC50 (μM) in NOX activity from BV2 cell lysate
[10] = read-out: IC50 (μM) in NOS, LPS-induced NO production in BV2 cells, 1-50 μM test drug, mean ± S.E.M.

## C=C(CC[C@@H](C)C1CCC2C3=C(C(=O)C[C@@]21C)[C@@]1(C)CCC(O)[C@@H](C)C1CC3O)C(C)C(=O)O (stereo in doubt) [Compound I-2, 3α,7β-dihydroxy-11-oxo-4α-methylergosta-8,24(28)-dien-26-oic acid]
[1]
  IC50: 15.7 ± 0.9 µM
[2]
  EC50 (μM) KB-VIN: NA@20

## C=C(CC[C@@H](C)C1CCC2C3=C(C(=O)C[C@@]21C)[C@@]1(C)CCC(O)[C@@H](C)C1CC3=O)C(C)C(=O)OC (stereo in doubt) [Compound I-5, methyl-3α-hydroxy-7,11-dioxo-4α-methylergosta-8,24(28)-dien-26-oate]
[3]
  ED50 (μg/mL) Daoy: 5.2 µg/mL (≈ 10.7 µM)
[4]
  ED50 (μg/mL) Hep2: 7.0 µg/mL (≈ 14.4 µM)
[5]; Homo sapiens
  EC50: 0.45 µM
[2]; Homo sapiens, KBVIN
  EC50: 2.7 µM
[6]
  ED50 (μg/mL) Hela: 9.0 µg/mL (≈ 18.6 µM)
[7]
  ED50 (μg/mL) MCF-7: 6.6 µg/mL (≈ 13.6 µM)

## C=C(CC[C@@H](C)C1CCC2C3=C(C(=O)C[C@@]21C)[C@@]1(C)CCC(=O)[C@@H](C)C1CC3O)C(C)C(=O)OC (stereo in doubt) [Compound I-6, methyl-7β-hydroxy-3,11-dioxo-4α-methylergosta-8,24(28)-dien-26-oate]
[3]
  ED50 (μg/mL) Daoy: 4.4 µg/mL (≈ 9.08 µM)
other
  melting point: 100 to 101 °C
[4]
  ED50 (μg/mL) Hep2: 3.0 µg/mL (≈ 6.19 µM)
[5]; Homo sapiens
  EC50: 2 µM
[1]
  IC50: 2.5 µM
[2]; Homo sapiens, KBVIN
  EC50: 2.9 µM
[6]
  ED50 (μg/mL) Hela: 8.9 µg/mL (≈ 18.4 µM)
[7]
  ED50 (μg/mL) MCF-7: 7.9 µg/mL (≈ 16.3 µM)

## C=C(CC[C@@H](C)C1CCC2C3=C(C(=O)C[C@@]21C)[C@@]1(C)CCC(=O)[C@@H](C)C1CC3O)C(C)C(=O)O (stereo in doubt) [Compound I-7, 7α-hydroxy-3,11-dioxo-4α-methylergosta-8,24(28)-dien-26-oic acid]
[5]; Homo sapiens
  EC50: 15 µM
[2]; Homo sapiens, KBVIN
  EC50: 17.5 µM

## C=C(CC[C@@H](C)C1CCC2C3=C(C(=O)[C@H](O)[C@@]21C)[C@@]1(C)CC[C@@H](O)[C@@H](C)C1C[C@H]3O)C(C)C(=O)O (stereo partly drawn) [Compound I-1, 3α,7β,11α-trihydroxy-11-oxo-4α-methylergosta-8,24(28)-dien-26-oic acid]
other
  melting point: 117 to 119 °C
[5]
  EC50 (μM) KB: NA@20
[2]
  EC50 (μM) KB-VIN: NA@20

## C=C(CC[C@@H](C)C1CCC2C3=C(C(=O)C[C@@]21C)[C@@]1(C)CC[C@@H](O)[C@](C)(O)C1CC3=O)C(C)C(=O)O (stereo partly drawn) [Compound I-3, 3α,4β-dihydroxy-7,11-dioxo-4α-methylergosta-8,24(28)-dien-26-oic acid]
other
  melting point: 186 to 188 °C
[5]; Homo sapiens
  EC50: 0.3 µM
[2]; Homo sapiens, KBVIN
  EC50: 2.3 µM

## C=C(CC[C@@H](C)[C@H]1CC[C@@]2(O)C3=C(C(=O)C[C@]12C)[C@@]1(C)CCC(=O)[C@@H](C)C1C[C@@H]3O)C(C)C(=O)O (stereo partly drawn) [Compound I-4, 7β,14α-dihydroxy-3,11-dioxo-4α-methylergosta-8,24(28)-dien-26-oic acid]
other
  melting point: 175 to 177 °C
[5]; Homo sapiens
  EC50: 1 µM
[2]; Homo sapiens, KBVIN
  EC50: 1.4 µM

## C=C(CC[C@@H](C)[C@H]1CC[C@H]2C3=C(C(=O)C[C@]12C)[C@@]1(C)CCC(=O)[C@@H](C)C1CC3)C(C)C (stereo partly drawn) [Compound I-8, 4α-methylergosta-8,24(28)-dien-3,11-dione]
[5]
  EC50 (μM) KB: NA@20
[2]
  EC50 (μM) KB-VIN: NA@20

## C[C@H](C=C[C@H](C)[C@H](C)CO)[C@H]1CC[C@H]2C3=CCC4CC(=O)CC[C@]4(C)[C@H]3CC[C@]12C (stereo partly drawn) [Compound I-9, (25S)-26-hydroxy-ergosta-7,22-dien-3-one]
other
  melting point: 192 to 193 °C
[5]
  EC50 (μM) KB: NA@20
[1]
  IC50: 12.7 ± 2.2 µM
[2]
  EC50 (μM) KB-VIN: NA@20

## C=C(CC[C@@H](C)[C@H]1CC[C@@H]2C3=C(C(=O)C[C@@]21C)[C@@]1(C)CCC(=O)[C@@H](C)C1CC3)C(C)C(=O)OC (stereo partly drawn) [Compound I-10, methyl-3,11-dioxo-4α-methyl-14β-ergosta-8,24(28)-dien-26-oate]
[3]
  ED50 (μg/mL) Daoy: —^a (ED50 > 20 μg/mL)
other
  melting point: 100 to 102 °C
[4]
  ED50 (μg/mL) Hep2: — (ED50 > 20 μg/mL)
[5]
  EC50 (μM) KB: NA@20
[1]
  IC50: 1.6 µM
[2]
  EC50 (μM) KB-VIN: NA@20
[6]
  ED50 (μg/mL) Hela: 11.3 µg/mL (≈ 24.1 µM)
[7]
  ED50 (μg/mL) MCF-7: 8.7 µg/mL (≈ 18.6 µM)

## C=C(CC[C@@H](C)[C@H]1CC[C@H]2C3=C(C(=O)C[C@]12C)[C@@]1(C)CCC(=O)[C@@H](C)[C@@H]1CC3=O)C(C)C(=O)O (stereo partly shown) [Compound I-11, zhankuic acid A]
[3]
  ED50 (μg/mL) Daoy: — (ED50 > 20 μg/mL)
[4]
  ED50 (μg/mL) Hep2: 16.6 µg/mL (≈ 35.4 µM)
[8]
  IC50: 22.1 ± 6.7 µM
[5]
  EC50: 3 µM
[1]; [10]
  IC50: 3.6 µM
[2]
  EC50: 6.2 µM
[6]
  ED50 (μg/mL) Hela: — (ED50 > 20 μg/mL)
[7]
  ED50 (μg/mL) MCF-7: — (ED50 > 20 μg/mL)

## C=C(CC[C@@H](C)[C@H]1CC[C@H]2C3=C(C(=O)C[C@]12C)[C@@]1(C)CC[C@@H](O)[C@@H](C)[C@@H]1CC3=O)C(C)C(=O)O (stereo partly shown) [Compound I-12, zhankuic acid B]
[5]
  EC50: 7.3 µM
[1]; [10]
  IC50: 9.6 ± 0.7 µM
[2]
  EC50: 8.5 µM

## C=C(CC[C@@H](C)[C@H]1CC[C@H]2C3=C(C(=O)C[C@]12C)[C@@]1(C)CCC(=O)[C@@H](C)[C@@H]1CC3=O)C(C)C(=O)OC (stereo partly shown) [Compound I-14, zhankuic acid A methyl ester]
[8]
  IC50: 8.4 ± 2.1 µM
[5]
  EC50: > 20 µM
[1]; [10]
  IC50: 0.6 µM
[2]
  EC50: > 20 µM

## C=C(CC[C@@H](C)[C@H]1CC[C@H]2C3=C(C(=O)C[C@]12C)[C@@]1(C)CCC(=O)[C@@H](C)[C@@H]1C[C@@H]3O)[C@H](C)C(=O)O [Compound I-16, antcin C]
[8]
  IC50: 22.6 ± 3.3 µM
[5]
  EC50 (μM) KB: NA@20
[1]; [10]
  IC50: 4.2 µM
[2]
  EC50 (μM) KB-VIN: NA@20

## C=C(CC[C@@H](C)[C@H]1CC[C@H]2C3=C(C(=O)C[C@]12C)[C@@]1(C)CC[C@@H](O)[C@](C)(O)[C@@H]1C[C@@H]3O)C(C)C(=O)O (stereo partly shown) [Compound I-17, antcin K]
[8]
  IC50: 47.2 ± 8.4 µM
[5]
  EC50 (μM) KB: NA@20
[2]
  EC50 (μM) KB-VIN: NA@20

## CC(C)[C@@H](C)/C=C/[C@@H](C)[C@H]1CC[C@H]2C3=CC[C@H]4C[C@@H](O)CC[C@]4(C)C3=CC[C@]12C [Compound I-20, ergosterol D]
[8]
  IC50: 27.9 ± 5.6 µM
[1]; [10]
  IC50: 30.6 ± 0.8 µM

## C=C(CC[C@@H](C)[C@H]1CC[C@H]2C3=C(C(=O)C[C@]12C)[C@@]1(C)CCC(=O)[C@@H](C)C1CC3)C(C)C(=O)OC (stereo partly drawn) [Compound I-21, methyl 4α-methylergost-8,24(28)-dien-3,11-dion-26-oate]
[1]
  IC50: 1.5 µM

## CC(C)[C@@H](C)/C=C/[C@@H](C)[C@H]1CC[C@@H]2[C@]1(C)CC[C@H]1[C@]23C=C[C@]2(C[C@@H](O)CC[C@]12C)OO3 [Compound I-22, ergosterol peroxide]
[1]; [10]
  IC50: 6.3 ± 1.8 µM

## c1ccc2c(c1)[I+]c1ccccc1-2 [DPI, Diphenyleneiodonium, reference compound]
[9]
  IC50: 0.4 µM

## C=C(C)C#Cc1c(C)c(OC)c(OC)c2c1OCO2 [II-2]
[1]; [10]
  IC50: 12.1 µM

## COc1c(C)c(-c2c(C)c(OC)c3c(c2OC)OCO3)c(OC)c2c1OCO2 [II-7, 2,2′,5,5′-tetra-methoxy-3,4,3′,4′-bi-methylenedioxy-6,6′-dimethylbiphenyl]
[1]; [10]
  IC50: 16.2 ± 1.4 µM

## COc1cc(C)c(OC)c2c1OCO2 [II-8, 4,7-dimethoxy-5-methyl-1,3-benzodioxole]
[1]; [10]
  IC50: 29.1 ± 4.4 µM

## eburicol [Compound I-19]
[5]
  EC50: > 20 µM
[2]
  EC50: > 20 µM
